Source: US20130143913A1, “PROPHYLACTIC OR THERAPEUTIC AGENT FOR NON-ALCOHOLIC STEATOHEPATITIS” (KYORIN PHARMACEUTICAL CO., LTD., priority 2010, published 2013)

What was measured:
[1] = test system: fatty acid synthesis in the liver; assay: Hepatic fatty acid synthesis from [1-14C]acetic acid in fasted/re-fed mice (fatty liver model); type: in vivo, mice (male C57BI/6J); conditions: re-fed mice after 48 h fasting; ibudilast 10 and 100 mg/kg orally twice a day (FIG. 1); vs. vehicle
Text: In NAFLD, it is regarded that the increase of the fatty acid synthesis in the liver is an important factor involved in the fatty liver formation (Shinji, T., et al. 2005. J. Clin. Invest. 115: 1139-1142). Therefore, with reference to methods described in Delzenne et al. (Delzenne, N. M., et al., 1997, J. HepatoL, 26: 880-885) and Tsuchida et al. (Tsuchida. A., et al., 2004, J. Bio. Chem., 279: 30817-30822), effects of ibudilast on the fatty liver were examined by using re-fed mice in which the fatty acid synthesis in the liver is enhanced.
After 48 hours of fasting, male C57BI/6J mice at 8 weeks of age (CLEA Japan, Inc.) were refed for four hours. […]
The mice were refed with standard diet (CE-2, CLEA Japan, Inc.) after 30 minutes of the oral administration after fasting periods of 48 hours, and the mice were anatomized after refeeding periods of four hours. The content of triglyceride and biosynthesis of fatty acid in isolated liver were measured.
The fatty acid synthesis in the liver was measured using the fatty acid synthesis from the acetic acid. […]
After centrifugation, the chloroform layer was obtained as the lower layer. After the dried residue was dissolved to methanol, the scintillation cocktail was mixed with the obtained solution to measure radioactivity using liquid scintillation counter (Tri-Crab 1900CA, PerkinElmer). […]

[2] = test system: content of triglyceride in the liver; assay: Hepatic triglyceride content in fasted/re-fed mice (fatty liver model); type: in vivo, mice (male C57BI/6J); conditions: re-fed mice after 48 h fasting; ibudilast 10 and 100 mg/kg orally twice a day (FIG. 2); vs. vehicle
Text: In NAFLD, it is regarded that the increase of the fatty acid synthesis in the liver is an important factor involved in the fatty liver formation (Shinji, T., et al. 2005. J. Clin. Invest. 115: 1139-1142). Therefore, with reference to methods described in Delzenne et al. (Delzenne, N. M., et al., 1997, J. HepatoL, 26: 880-885) and Tsuchida et al. (Tsuchida. A., et al., 2004, J. Bio. Chem., 279: 30817-30822), effects of ibudilast on the fatty liver were examined by using re-fed mice in which the fatty acid synthesis in the liver is enhanced. After 48 hours of fasting, male C57BI/6J mice at 8 weeks of age (CLEA Japan, Inc.) were refed for four hours. To the vehicle group as a control, 2% (v/v) of PEG-60 hydrogenated castor oil (NIKKOL HCO-60, Nikko Chemicals Co., Ltd.) was orally administrated before fasting and after fasting periods of 12, 24, 36, and 48 hours. To ibudilast groups, […] or 100 mg/kg of ibudilast which was dissolved to 2% (v/v) of PEG-60 hydrogenated castor oil was orally administered before fasting and after fasting periods of 12, 24, 36, and 48 hours. […] The content of triglyceride and biosynthesis of fatty acid in isolated liver were measured. […] The dried extract was dissolved to 4% (v/v) of Triton X-100 and the triglyceride concentration was measured using Liquitech TG-II reagent (Roche Diagnostics K. K.). […]

[3] = test system: triglyceride content in liver; assay: Hepatic triglyceride content in ob/ob mice (obesity-related fatty liver model); type: in vivo, mice (male ob/ob, B6.V-Lep^ob/J); conditions: ibudilast 10, 30 or 100 mg/kg orally twice a day for two weeks (FIG. 3), vs. vehicle
Experimental: Obesity and insulin resistance are regarded as a major pathologic basis in NAFLD (Kristina, M., et al. 2006, J. Clin Endocrinol Metab., 91: 4753-4761). Therefore, effect of ibudilast on fatty liver was evaluated using B6.V-Lep^ob/J mice (ob/ob; Charles River Laboratories Japan, Inc.), a model of obesity-related insulin resistance and fatty liver. Male ob/ob mice (Charles River Laboratories Japan, Inc.) at seven weeks of age were used. To the vehicle group as a control, 2% (v/v) of PEG-60 hydrogenated castor oil (NIKKOL HCO-60, Nikko Chemicals Co., Ltd.) was orally administrated twice a day. To ibudilast groups, 10, 30 or 100 mg/kg of ibudilast which was dissolved to 2% (v/v). of PEG-60 hydrogenated castor oil was orally administered twice a day. At 15 to 21 hours after the end of two weeks administration period, the mice were dissected in the fed state. The content of triglyceride in isolated liver was measured. Triglyceride was extracted from the liver by using improved method of Folch et al. (Folch, J., et al. 1957. J. Biol. Chem., 226: 497-509). Tissues were homogenized by using chloroform methanol mixture 2:1 (v/v). […] The dried extract was dissolved to 4% (v/v) of Triton X-100 and the triglyceride concentration was measured using Liquitech TG-II reagent (Roche Diagnostics K. K.). […]

[4] = test system: TNFα mRNA; assay: TNFα mRNA expression in liver of MCD diet-fed mice (quantitative real-time PCR); type: in vivo, mice (male C57BI/6J); conditions: ibudilast 10, 30 or 100 mg/kg orally twice a day for 14 days (FIG. 4), relative to 18S rRNA
Experimental: (§1) Effects of ibudilast on the hepatic inflammation and hepatic fibrosis were examined using methionine- and choline-deficient (MCD) diet-fed mice which induced hepatic inflammation and hepatic fibrosis involved in human pathological conditions like NASH. The MCD diet (Oriental Yeast Co., Ltd.) produced in accordance with the previous report by Okumura et al. (Okumura, K., et al. 2006, Hepatol. Res., 36: 217-228) was administered to male C57BI/6J mice (CLEA Japan, Inc.) at ten weeks of age for six weeks. […] Thereafter, TNFα, MCP-1, IL-1β, TGFβ, and col1a1 mRNA expressions in isolated liver were measured using the quantitative real-time PCR method. The 18S rRNA mRNA expression was used as an internal standard of the quantitative real-time PCR method and similarly measured. […] The quantitative real-time PCR was performed using TaqMan Fast Universal PCR Master Mix (Applied Biosystems) and Applied Biosystems 7500 Fast Real-Time PCR System (Applied Biosystems). […] Moreover, each operation relating to the quantitative real-time PCR was carried out in accordance with the manual attached to each reagent, kits and device. […]

[5] = test system: MCP-1 mRNA; assay: MCP-1 mRNA expression in liver of MCD diet-fed mice (quantitative real-time PCR); type: in vivo, mice (male C57BI/6J); conditions: ibudilast 10, 30 or 100 mg/kg orally twice a day for 14 days (FIG. 5), relative to 18S rRNA
Experimental: as §1

[6] = test system: IL-1β mRNA; assay: IL-1β mRNA expression in liver of MCD diet-fed mice (quantitative real-time PCR); type: in vivo, mice (male C57BI/6J); conditions: ibudilast 10, 30 or 100 mg/kg orally twice a day for 14 days (FIG. 6), relative to 18S rRNA
Experimental: as §1

[7] = test system: TGFβ mRNA; assay: TGFβ mRNA expression in liver of MCD diet-fed mice (quantitative real-time PCR); type: in vivo, mice (male C57BI/6J); conditions: ibudilast 10, 30 or 100 mg/kg orally twice a day for 14 days (FIG. 7), relative to 18S rRNA
Experimental: as §1

[8] = test system: col1a1 mRNA; assay: col1a1 mRNA expression in liver of MCD diet-fed mice (quantitative real-time PCR); type: in vivo, mice (male C57BI/6J); conditions: ibudilast 10, 30 or 100 mg/kg orally twice a day for 14 days (FIG. 8), relative to 18S rRNA
Experimental: as §1

## CC(C)C(=O)c1c(C(C)C)nn2ccccc12 [Ibudilast, ibudilast]
[1]
  fatty acid synthesis in the liver: decreased
[2]
  content of triglyceride in the liver: significantly decreased
[3]
  triglyceride content in liver: significantly decreased
[4]
  mRNA expression of TNFα in liver (index of hepatic inflammation): decrease
[5]
  mRNA expression of MCP-1 in liver (index of hepatic inflammation): decrease
[6]
  mRNA expression of IL-1β in liver (index of hepatic inflammation): decrease
[7]
  mRNA expression of TGFβ in liver (index of hepatic fibrosis): decrease
[8]
  mRNA expression of collal in liver (index of hepatic fibrosis): decrease
